Measurements from US20150320692A1 (UNIWERSYTET LÓDZKI, priority 2012, published 2015).

Tested on: CLL cells (leukemic lymphocytes)
Test: Assessment of mitochondrial membrane potential (CMXRos, flow cytometry)
Type: cell-based, human
Conditions: for mean percentage of cells with lower mitochondrial potential (ΔΨm^low/Gly-A^−): 1.6 μM
Source text: Mitochondrial membrane potential is an early indicator of apoptosis. CMXRos, i.e. Chloromethyl-X-rosamine (the reagent's name by Mito Tracker Red CMXRos, Molecular Probes, USA), and a monoclonal antibody to glycophorin A conjugated with FITC (the reagent's name of Anti-Glycophorin A FITC by Dako, Denmark) were used for its assessment. CMXRos is a lipophilic cationic dye that accumulates in the mitochondrial matrix of viable cells when there is an electronegative load on the inner surface of the mitochondrial membrane. This asymmetric location of protons along the inner mitochondrial membrane leads to a high mitochondrial membrane potential (ΔΨm) in living cells. A decreased mitochondrial potential ΔΨm is one of the first symptoms of apoptosis during the process of induction, which results in lowering of the mitochondrial uptake of CMXRos.
The stock CMXRos solution was prepared by dilution of the substance supplied by the manufacturer in 94 μl DMSO (dimethylsulphoxide), and stored at […]. Then working solution was prepared also using DMSO (1:10) and stored at 4° C. Mononuclear cells, i.e. leukemic lymphocytes, at 1×10^6 MNCs/ml concentration, were incubated with CMXRos (2.5 μl working solution in 500 μl RPMI 1640 medium) at 37° C. for 30 minutes. […] The samples were next measured using flow cytometry. The percentage of cells not bound to anti-glycophorin A-FITC (ΔΨm^low/Gly-A^− cells), with low mitochondrial potential, was calculated.
All fluorescence measurements were performed by a flow cytometer FACSCalibur (Becton Dickinson, USA) equipped with an argon laser 488 nm and computer program CellQuestPro (Becton Dickinson, USA). Each time 10 000 cells were evaluated. The fluorescence was measured using standard emission filters: green—FL1 (wavelength λ=530±20 nm) and red—FL3 (>600 nm).

Row | Compound | mean percentage of cells with lower mitochondrial potential (ΔΨm^low/Gly-A^−) (24 h) [%] | mean percentage of cells with lower mitochondrial potential (ΔΨm^low/Gly-A^−) (48 h) [%] | apoptosis-inducing action (mitochondrial potential) compared with control (10 μg/ml, 24-hour cultures)
1 | Nc1nc(F)nc2c1ncn2[C@@H]1O[C@H](CO)[C@@H](O)[C@@H]1O [FA, fludarabine] | 52.05 | 74.49 | –
2 | rituximab | – | – | apoptosis-inducing action in order of spontaneous apoptosis
